This is an account of results in patent US20260098017A1, “NOVEL AROMATIC RING DERIVATIVE CONTAINING AMIDE SUBSTITUTION AND USE THEREOF” (TIANJIN PHARMACEUTICAL BIOTECHNOLOGY CO., LTD., priority 2022, published 2026).

The target in the assay is TYK2 JH2 pseudokinase (Homo sapiens, UniProt P29597). Put plainly: TYK2 JH2 enzyme binding assay in vitro (TR-FRET). On the procedure:
Instrumentation: Envision microplate reader (PerkinElmer), ECHO550 (LABCYTE).
Method: the inhibitory effects of compounds on TYK2 JH2 pseudokinase was tested using time-resolved fluorescence resonance energy transfer (TR-FRET) method.
Procedure: compounds were prepared into 10 mM stock solutions using DMSO, which were further diluted into compound dilutions (200×) with different concentration gradients in DMSO, and the compound dilutions (200×) were transferred to a 384-well assay plate using an Echo instrument. […] TYK2 JH2 pseudokinase, Tb antibody, and Tracer working solutions were prepared using the dilution buffer, respectively. 5 uL of TYK2 JH2 pseudokinase working solution (final concentration 0.5 nM) was added to a 384-well assay plate, and centrifuged at 1000 rpm for 30 s. 5 uL of Tb antibody (final concentration 1×) was added to the 384-well assay plate, and centrifuged at 1000 rpm for 30 s. 5 uL of Tracer (final concentration 0.5 nM) was added to the 384-well assay plate, and centrifuged at 1000 rpm for 30 s. Incubation was performed at room temperature for 60 min, and then at 4° C. overnight.
Data Analysis: XLfit, a software developed by IDBS and integrated into the Microsoft Excel environment, was used to process and analyze the test data.

Chain of TYK2 JH2 pseudokinase (P29597 589-875 limits assumed): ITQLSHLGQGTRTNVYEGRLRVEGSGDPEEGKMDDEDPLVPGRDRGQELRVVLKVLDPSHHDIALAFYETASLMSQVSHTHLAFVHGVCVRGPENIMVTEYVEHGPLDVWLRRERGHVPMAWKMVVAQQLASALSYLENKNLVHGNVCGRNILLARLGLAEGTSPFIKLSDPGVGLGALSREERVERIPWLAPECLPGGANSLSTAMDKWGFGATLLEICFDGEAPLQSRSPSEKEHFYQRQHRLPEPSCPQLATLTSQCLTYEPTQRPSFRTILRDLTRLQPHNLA

Turning to `[2H]C([2H])([2H])NC(=O)c1nnc(NC(=O)C2CC2)cc1Nc1cccc(C(=O)Nc2cccc(C)c2)c1OC` [Example 3], the IC50 came to 0.274 nM.
